Reference: ChEMBL document CHEMBL5370606, “Diterpenoids from Euphorbia fischeriana with Kv1.3 Inhibitory Activity” (J Nat Prod, 2023)

What was measured:
HEK293 = experiment: Cytotoxicity against HEK293 cells; format: toxicity, cell-based; settings: human
[1] = target: T1, Potassium voltage-gated channel subfamily A member 3 (Homo sapiens, UniProt P22001); experiment: Inhibition of Kv1.3 (unknown origin) expressed in HEK293 cells at 10 uM at -90 mV holding potential by automated patch-clamp technique relative to control; format: cell-based
[2] = target: T1, Potassium voltage-gated channel subfamily A member 3; experiment: Inhibition of Kv1.3 (unknown origin) expressed in HEK293 cells at 30 uM at -90 mV holding potential by automated patch-clamp technique relative to control; format: cell-based
hERG (KCNH2) [3] = target: T2, hERG (KCNH2) (Homo sapiens, UniProt Q12809); experiment: Inhibition of human ERG expressed in HEK293 cells at 10 uM at -80 mV holding potential by whole-cell patch clamp method; format: toxicity, cell-based; settings: HEK293 cells that express hERG
hERG (KCNH2) [4] = target: T2, hERG (KCNH2); experiment: Inhibition of human ERG expressed in HEK293 cells at 30 uM at -80 mV holding potential by whole-cell patch clamp method; format: toxicity, cell-based; settings: HEK293 cells that express hERG
[5] = target: T1, Potassium voltage-gated channel subfamily A member 3; experiment: Inhibition of Kv1.3 (unknown origin) expressed in HEK293 cells at -90 mV holding potential by automated patch-clamp technique; format: cell-based
Homo sapiens = species: Homo sapiens; experiment: Selectivity index, ratio of IC50 for human ERG expressed in HEK293 cells to IC50 for Kv1.3 (unknown origin) expressed in HEK293 cells; format: cell-based
[6] = target: Voltage-gated inwardly rectifying potassium channel KCNH2 (Homo sapiens, UniProt Q12809); experiment: Inhibition of human ERG expressed in HEK293 cells at -80 mV holding potential by whole-cell patch clamp method; format: toxicity, cell-based
Chain of Voltage-gated inwardly rectifying potassium channel KCNH2 (Q12809 whole entry): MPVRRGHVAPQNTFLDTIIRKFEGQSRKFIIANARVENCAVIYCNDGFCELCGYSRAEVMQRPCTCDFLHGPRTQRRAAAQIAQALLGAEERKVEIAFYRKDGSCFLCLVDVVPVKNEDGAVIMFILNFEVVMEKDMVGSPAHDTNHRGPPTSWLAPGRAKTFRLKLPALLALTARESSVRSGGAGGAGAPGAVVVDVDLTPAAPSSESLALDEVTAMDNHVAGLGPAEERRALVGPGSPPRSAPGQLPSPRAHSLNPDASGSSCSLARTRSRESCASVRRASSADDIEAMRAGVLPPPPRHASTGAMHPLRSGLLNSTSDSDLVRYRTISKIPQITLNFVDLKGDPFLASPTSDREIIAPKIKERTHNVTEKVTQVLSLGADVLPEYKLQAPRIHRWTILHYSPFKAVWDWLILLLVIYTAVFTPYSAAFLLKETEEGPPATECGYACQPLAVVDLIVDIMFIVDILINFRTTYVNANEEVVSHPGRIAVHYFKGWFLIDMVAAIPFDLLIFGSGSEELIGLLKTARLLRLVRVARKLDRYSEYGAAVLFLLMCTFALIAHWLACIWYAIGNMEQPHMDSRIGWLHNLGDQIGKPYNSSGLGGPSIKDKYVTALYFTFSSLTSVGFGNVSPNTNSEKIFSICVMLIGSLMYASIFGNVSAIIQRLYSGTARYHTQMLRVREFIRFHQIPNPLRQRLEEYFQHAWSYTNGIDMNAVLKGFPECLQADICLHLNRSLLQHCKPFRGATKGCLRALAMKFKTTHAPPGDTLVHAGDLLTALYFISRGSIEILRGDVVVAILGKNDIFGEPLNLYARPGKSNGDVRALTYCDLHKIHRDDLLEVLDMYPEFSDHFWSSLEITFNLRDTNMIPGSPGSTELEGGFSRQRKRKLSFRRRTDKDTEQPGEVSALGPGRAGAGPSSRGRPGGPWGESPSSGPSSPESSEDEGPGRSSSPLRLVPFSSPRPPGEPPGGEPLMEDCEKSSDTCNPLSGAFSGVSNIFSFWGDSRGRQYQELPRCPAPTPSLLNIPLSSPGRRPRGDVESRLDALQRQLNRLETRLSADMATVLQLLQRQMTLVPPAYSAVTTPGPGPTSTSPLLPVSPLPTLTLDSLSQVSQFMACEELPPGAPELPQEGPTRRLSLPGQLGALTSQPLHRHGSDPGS

T1 sequence (P22001 whole entry): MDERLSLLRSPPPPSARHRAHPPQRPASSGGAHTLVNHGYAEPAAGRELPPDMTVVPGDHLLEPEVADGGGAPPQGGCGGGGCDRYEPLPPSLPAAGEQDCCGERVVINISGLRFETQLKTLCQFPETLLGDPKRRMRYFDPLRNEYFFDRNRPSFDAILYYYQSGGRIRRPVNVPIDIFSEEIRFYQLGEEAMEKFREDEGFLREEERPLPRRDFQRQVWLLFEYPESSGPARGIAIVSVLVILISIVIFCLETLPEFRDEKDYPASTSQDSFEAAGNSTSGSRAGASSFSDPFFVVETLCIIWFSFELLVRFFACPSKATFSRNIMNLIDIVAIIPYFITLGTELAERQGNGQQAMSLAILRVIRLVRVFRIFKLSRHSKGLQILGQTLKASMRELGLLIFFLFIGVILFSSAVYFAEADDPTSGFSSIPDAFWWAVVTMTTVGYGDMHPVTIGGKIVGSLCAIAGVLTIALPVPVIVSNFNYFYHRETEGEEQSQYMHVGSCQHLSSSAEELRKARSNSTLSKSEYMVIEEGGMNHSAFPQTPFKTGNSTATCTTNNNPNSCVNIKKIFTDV
T2 sequence (Q12809 whole entry): as the sequence (Q12809 whole entry) above

SMILES | Activity (HEK293) | inhibition [1] [%] | inhibition [2] [%] | inhibition at 10 µM (hERG (KCNH2) [3]) [%] | inhibition at 30 µM (hERG (KCNH2) [4]) [%] | IC50 [5] [µM] | Ratio IC50 (Homo sapiens) | IC50 [6] [µM]
CC(=O)O[C@]12C[C@@H](C)[C@H](O)[C@@H]1[C@H]1O[C@]1(C)[C@H](O)C[C@H]1[C@@H](/C=C(\C)C2=O)C1(C)C | Non-Toxic | 39.2 | 75.1 | – | – | – | – | –
CC(=O)O[C@@H]1[C@@H](C)/C=C/C(C)(C)C(=O)C[C@@H](O)/C(C)=C/[C@H]2[C@@H](OC(=O)c3ccccc3)[C@H](C)C[C@]12OC(C)=O | Non-Toxic | 59.8 | 84.2 | 44.6 | 75.4 | – | – | –
CC(=O)O[C@@H]1[C@@H](C)/C=C/C(C)(C)C(=O)C[C@@H](OC(C)=O)/C(C)=C/[C@H]2[C@@H](OC(=O)c3ccccc3)[C@H](C)C[C@]12O | Non-Toxic | 30.2 | 72 | – | – | – | – | –
CCC/C=C\C=C\C(=O)O[C@@H]1C[C@H]2[C@@H](/C=C(\C)C(=O)[C@@]3(OC(C)=O)C[C@@H](C)[C@H](O)[C@@H]3/C=C/1C)C2(C)C | Non-Toxic | 39.8 | 77.7 | – | – | – | – | –
C/C1=C\[C@H]2[C@@H](OC(=O)c3ccccc3)[C@H](C)C[C@]2(O)[C@H](O)[C@@H](C)/C=C/C(C)(C)C(=O)C[C@H]1O | Non-Toxic | 43.5 | 83.5 | – | – | – | – | –
CC(=O)O[C@@H]1[C@@H](C)/C=C/C(C)(C)C(=O)C[C@@H](O)/C(C)=C/[C@H]2[C@@H](OC(=O)c3ccccc3)[C@H](C)C[C@]12O | Non-Toxic | 28.7 | 69.3 | – | – | – | – | –
C=C1C[C@@]23CC[C@@H]4C(C)(C)C(=O)CC[C@@]4(C)[C@@H]2C[C@@H]1[C@@H](O)C3=O | Non-Toxic | – | 32.3 | – | 24.5 | – | – | –
CC(=O)OCC1=C[C@@H]2C(=O)[C@]3(C=C(C)[C@H](O)[C@@]3(O)[C@@H]1O)[C@H](C)C[C@@H]1[C@H]2C1(C)C | Non-Toxic | – | 12.5 | – | 23.3 | – | – | –
CC1(C)C(=O)CC[C@]2(C)[C@@H]1CC[C@@]13CC[C@@H](C[C@H]12)[C@](O)(CO)C3 | Non-Toxic | – | 7.1 | – | – | – | – | –
CC1(C)[C@H](O)CC[C@]2(C)[C@@H]1CC[C@@]13CC[C@@H](C[C@H]12)[C@](O)(CO)C3 | Non-Toxic | – | 21 | – | – | – | – | –
C=C1C[C@@]23CC[C@@H]4C(C)(C)[C@H](O)CC[C@@]4(C)[C@@H]2C[C@@H]1[C@@H](O)C3=O | Non-Toxic | – | 10.4 | – | – | – | – | –
CC1=C2C=C3CC[C@@H]4C(C)(C)[C@H](O)C(=O)C[C@@]4(C)[C@@H]3C[C@H]2OC1=O | Non-Toxic | – | 20.4 | – | – | – | – | –
CC1=C2C(=C[C@H]3[C@]4(C)CC[C@@H](O)C(C)(C)[C@H]4CC[C@]34O[C@H]24)OC1=O | Non-Toxic | – | 14.5 | – | – | – | – | –
CC(=O)O[C@H]1[C@@H](C)/C=C/C(C)(C)C(=O)CC(=O)/C(C)=C/[C@H]2[C@@H](OC(=O)c3ccccc3)[C@H](C)C[C@@]21O | Non-Toxic | 42.9 | 77.5 | – | – | – | – | –
CC(=O)O[C@]12C[C@@H](C)[C@H](O)[C@@H]1/C=C(\C)[C@H](O)C[C@@H]1[C@@H](/C=C(\C)C2=O)C1(C)C | Non-Toxic | 33.5 | 70.6 | – | – | – | – | –
CC(=O)O[C@]12C[C@@H](C)[C@H](O)[C@@H]1/C=C(\C)[C@H](O)C[C@H]1[C@@H](/C=C(\C)C2=O)C1(C)C | Non-Toxic | 21.7 | 67.5 | – | – | – | – | –
Fc1ccc([C@@H]2CCNC[C@H]2COc2ccc3c(c2)OCO3)cc1 [PAROXETINE] | Non-Toxic | – | 35.1 | – | – | – | – | –
CC1=C2C=C3CC[C@@H]4C(C)(C)C(=O)CC[C@@]4(C)[C@]3(O)C[C@H]2OC1=O | Non-Toxic | – | 17.2 | – | – | – | – | –
CC1=C2C=C3CC[C@@H]4C(C)(C)C(=O)[C@H](O)[C@@]4(C)[C@@H]3C[C@H]2OC1=O | Non-Toxic | – | 24.4 | – | 19.9 | – | – | –
COC(=O)CCC(=O)O[C@@H]1C[C@H]2[C@@H](/C=C(\C)C(=O)[C@@]3(OC(C)=O)C[C@@H](C)[C@H](O)[C@@H]3/C=C/1C)C2(C)C | Non-Toxic | 47.6 | 89.4 | 29.7 | 49.7 | – | – | –
CC1=C2C=C3CC[C@@H]4C(C)(C)[C@H](O)CC[C@@]4(C)[C@]3(O)C[C@H]2OC1=O | Non-Toxic | – | 21.2 | – | – | – | – | –
CC(=O)O[C@@H]1CC(=O)C(C)(C)/C=C/[C@@H](C)[C@@H](O)[C@@]2(OC(C)=O)C[C@@H](C)[C@H](OC(=O)c3ccccc3)[C@@H]2/C=C/1C | Non-Toxic | 62.2 | 86.5 | 36.9 | 60.2 | – | – | –
CC(=O)O[C@]12C[C@@H](C)[C@H](OC(=O)c3ccccc3)[C@@H]1/C=C(\C)[C@H](O)C[C@H]1[C@@H](/C=C(\C)C2=O)C1(C)C | Non-Toxic | 55.6 | 81.2 | – | 40.9 | 4.3 | > 7 | > 30
